This is an account of results in US12002595B2, “Separation of metal ions by liquid-liquid extraction” (priority 2016, dated 2024).

Test [1] in a line: Stability constant (log βML) of ligand-metal complexes. The test is classed as binding. From the text: Thus far, no stability constant has been published for the actinium (Ac^3+) complex of 3,4,3-LI(1,2-HOPO). Based on the ionic radius of Ac^3+ (1.22 Å; See, D. Lundberg, I. Persson, The size of actinoid(III) ions—structural analysis vs. common misinterpretations, Coord. Chem. Rev. 318 (2016) 131-134. doi:10.1016/j.ccr.2016.04.003) and stability constants determined for other actinide and lanthanide ions, the stability of the Ac^3+ complex is expected to be very low, with a log β[AcL]- value of about 12 (FIG. 22). Stability of constant of 3,4,3-LI(1,2-HOPO) complexes with trivalent ions as a function of the ionic radius of the metal is shown in FIG. 22. […] Ionic radius values taken from Lundberg et al. for nona-coordinated metal ions. The Ac^3+ data point is an estimate. See, Lundberg, I. Persson, The size of actinoid(III) ions—structural analysis vs. common misinterpretations, Coord. Chem. Rev. 318 (2016) 131-134. doi:10.1016/j.ccr.2016.04.003; D. Lundberg, I. Persson, L. Eriksson, P. D'Angelo, S. De Panfilis, Structural Study of the N,N′-Dimethylpropyleneurea Solvated Lanthanoid(III) Ions in Solution and Solid State with an Analysis of the Ionic Radii of Lanthanoid(III) Ions, Inorg. Chem. 49 (2010) 4420-4432. doi:10.1021/ic100034q.

The nature of test [2]: Ligand selectivity from stability constants. The test is classed as binding. From the text:
While this class of ligands, encompassing HOPO and catecholamide (CAM) derivatives, has been known for decades, it had never been studied in details for separation applications. In fact, a few exceptions aside, most of these chelators have only been studied with a single cation, such as Gd^3+, Th^4+, or Pu^4+, impairing broader evaluation of their metal-metal selectivity. The chemistry of some HOPO ligands was recently extended across the periodic table, highlighting their outstanding selectivity, and large superiority over polyaminocarboxylate chelators (IDA, EDTA, DTPA, etc.), typically encountered in separations (FIGS. 46A-46F). Stability constants (log βML) were calculated as described in Sturzbecher-Hoehne, M., Kullgren, B., Jarvis, E. E., An, D. D. & Abergel, R. J. Highly Luminescent and Stable Hydroxypyridinonate Complexes: A Step Towards New Curium Decontamination Strategies. Chem. Eur. J. 20, 9962-9968 (2014); Sturzbecher-Hoehne, M., Yang, P., D'Aldo, A. & Abergel, R. J. Intramolecular sensitization of americium luminescence in solution: shining light on short-lived forbidden 5f transitions. Dalton Trans. 45, 9912-9919 (2016); Deblonde, G. J.-P., Lohrey, T. D., An, D. D. & Abergel, R. J. Toxic heavy metal—Pb, Cd, Sn—complexation by the octadentate hydroxypyridinonate ligand archetype 3,4,3-LI(1,2-HOPO). New J. Chem. 42, 7649-7658 (2018). […]

As for `O=C(NCCCN(CCCCN(CCCNC(=O)c1cccc(=O)n1O)C(=O)c1cccc(=O)n1O)C(=O)c1cccc(=O)n1O)c1cccc(=O)n1O` [3,4,3-LI(1,2-HOPO)], in test [1] (Ac^3+ complex, expected from ionic radius (1.22 Å) and constants of other ions), the “log β[AcL]-” value is reported as “about 12”. The “log βML” value in test [1] (Ac^3+, estimate based on ionic radius) was 10-14. Further, the “Ce^4+/Ce^3+ selectivity above what could be expected from a carboxylate ligand” value in test [2] was “about 15 orders of magnitude”.
